Source: US8313763B2, “Sustained delivery formulations of rapamycin compounds” (Tolmar Therapeutics, Inc., priority 2004, dated 2012)

What was measured:
[1] = test system: choroidal neovascularization (CNV); assay: Laser-induced CNV model, histological evaluation (CNV area, CD31-positive cell count); format: in vivo, Long Evans rats
Experimental: (§1) Thermal laser infrared light (diode laser 810 nm) at 200 mW for 0.075 seconds was delivered to the fundus of Long Evans rats using a slit lamp and a slit lamp adaptor. A total of 6 lesions with 75 μm diameter were placed in a circular pattern surrounding the optic disc on the posterior pole.
Intravitreal injection was performed immediately after laser photocoagulation. Briefly, three days prior to the injection, 0.3% Ciloxan ointment was applied to the eye once daily. At the time of injection, the eye pocket was irrigated and the conjunctiva swabbed with 1.0% Betadine solution. […] The injection began when the bevel of the needle faced down and reached the vitreous about 1-2 mm in depth with the visual aid of a dissecting microscope. After injection, topical 0.3% Ciloxan ointment was applied to the eye once daily for 2 days.
Eyes were enucleated and chorioretinal tissues that contained the CNV lesions prepared and fixed for about 18 hours in formic acid alcohol, and then replaced with 70% alcohol until the specimen was processed to wax by a standard method. Slides were stained with mouse anti rat CD31 (Chemicon, UK) by a standard immunohistochemistry protocol. This briefly consisted of removal of endogenous peroxidase enzymes with methanol and hydrogen peroxide, primary antibody as above, and the secondary donkey antibody anti mouse conjugated to biotin. Streptavidin ABC and Vector VIP substrate (Vector labs, Burlingame Calif.) were further added. Haematoxylin was used as a counterstain. Representative images before and after the center of each CNV lesion were taken using the 20× objective of an Olympus BX61 microscope fitted with a Spot RT colour camera (Diagnostic instruments, MI USA). Each image was applied to the standard image analysis macro in the software Image pro to identify the mean of lesion area for each CNV and the mean of CD31 positive cell counts (i.e. endothelial cells) within the CNV lesion area. All measurements were generated by two independent readers masked to the treatments. The data was analyzed in Excel and GraphPad Prism. The 80% correlation found between readers was deemed acceptable.

[2] = test system: choroidal neovascularization (CNV); assay: Laser-induced CNV model, fluorescein angiography evaluation of leaky CNV; format: in vivo, Long Evans rats; details: for incidence of developing leaky CNV 2 weeks after laser photocoagulation: vehicle 83%
Experimental: as §1
(§2) Intravitreal injection was performed immediately after laser photocoagulation. Briefly, three days prior to the injection, 0.3% Ciloxan ointment was applied to the eye once daily. At the time of injection, the eye pocket was irrigated and the conjunctiva swabbed with 1.0% Betadine solution. A 30-gauge needle connected to a 10-μL Hamilton syringe that contained 5 μL carboxymethylcellulose (CMC)-based Rapamycin suspension (0.5, 5, 10 or 40 mg/mL) or CMC vehicle alone was inserted 1 mm posterior to the corneoscleral limbus. The injection began when the bevel of the needle faced down and reached the vitreous about 1-2 mm in depth with the visual aid of a dissecting microscope. After injection, topical 0.3% Ciloxan ointment was applied to the eye once daily for 2 days.
FA was performed on the 14th day after intravitreal injection of Rapamycin. Briefly, a 25-gauge butterfly catheter was placed in the tail vein on an anesthetized animal and a Heparin-Lock solution (0.50 mL of 10,000 IU/mL Heparin Sodium with 0.95 mL 0.9% Saline) was used to fill the catheter line to maintain intravenous access. A dose of 10 mg/kg of Diofluor 10% (Fluorescein Sodium 10%) was delivered through the tail vein, followed by a flush of sterile saline to ensure full delivery of Diofluor 10%. An infusion pump (Becton-Dickinson) connected to a 60 cc syringe was used to infuse the Diofluor 10% at a constant rate of 6 mL/min (8.4-13.2 pounds per square inches) to allow for consistency in the synchronization of the fluorescein bolus injection and the angiogram acquisition. Photographs were taken with a fluorescence fundus camera at 1-10, 30, 60, 90, 180, and 300 sec after Diofluor 10% administration. The leakiness of CNV was assessed by two independent readers masked to the treatment.

[3] = test system: Ser235/236 phosphorylation of S6 ribosomal protein (downstream target of mTOR); assay: Pharmacodynamic evaluation: S6 phosphorylation in chorioretinal tissues by western blot; format: in vivo, rat
Experimental: as §2
Upon euthanasia of the animal, the eyes were cut along the equator, separating the anterior and posterior segments. The vitreous was removed and the remaining back of eye (with intact retina, choroid and sclera) was placed in a labeled Nalgene Cryotube, immediately immersed in liquid nitrogen, and stored at −80° C. until ready to use. Upon lysis, tubes containing tissue were brought to room temperature to thaw. […] Protein concentration of each sample was determined using the Pierce BCA Protein Determination Kit (Pierce, CAT #: 23225) and BSA as a standard. Samples were analyzed by SDS-PAGE, followed by western blotting. […] Bound antibodies were detected using ECL or ECL plus Western Blotting Reagents. Densitometric evaluation was performed on blots scanned by Bio-Rad Multi-Analyst Software, and analyzed in MS Excel and GraphPad Prism.
Rapamycin inhibits mTOR activity, which then down-regulates Ser235/236 phosphorylation of the downstream target of mTOR, the S6 ribosomal protein. In order to evaluate the pharmacodynamic response of intravitreally administered rapamycin in the eye, the serine phosphorylation of S6 protein extracted from chorioretinal tissues was analyzed by western blot, and standardized by the total amount of S6 protein. […]

[4] = test system: THP-1 cells (monocytic cell line); assay: TNFalpha release from Lipopolysaccharide and IFNgamma treated THP-1 cells; format: cell-based; details: Homo sapiens
Experimental: (§3) Targeted tissue concentrations were estimated from in vitro experiments assessing the inhibitory effects of rapamycin on endothelial cell proliferation and cytokine release from immune cells. Human umbilical endothelial cells were activated with Vascular Endothelial Growth Factor (VEGF) and incubated with various concentrations of rapamycin. Cell proliferation was evaluated by quantifying [3}H-thymidine incorporation after 48 hours. […] The IC50 for the release of TNFalpha from Lipopolysaccharide and IFNgamma treated THP-1 cells (monocytic cell line) was ˜1 nM and the IC50 for the release of IFNgamma from human peripheral blood T cells stimulated with phytohemagglutanin was ˜2 nM.

[5] = test system: human peripheral blood T cells; assay: IFNgamma release from phytohemagglutanin-stimulated T cells; format: cell-based; details: T-cell, T cells stimulated with phytohemagglutanin
Experimental: as §3

[6] = test system: Human umbilical endothelial cells; assay: VEGF-activated endothelial cell proliferation, [3H]-thymidine incorporation; format: cell-based; details: [3H]-thymidine incorporation after 48 hours
Experimental: as §3

Row | Structure (SMILES) | inhibition of CNV area ([1]; TA, intravitreal 200 μg) | inhibition of endothelial cell count ([1]; TA, intravitreal 200 μg) | incidence of leaky CNV at the 14-day follow-up ([2]; intravitreal dose of 200 μg, positive control) | level of phosphorylated Ser235/236 on S6 ribosomal protein, standardized by total S6 ([3]; chorioretinal tissues, day 1, 3 and 7 post-dosing, vs untreated or vehicle-injected eyes, FIG. 10) | onset of inhibitory effect on S6 phosphorylation ([3]; intravitreal, rat) | duration of inhibitory effect on S6 phosphorylation ([3]; post-dosing, longest follow-up timepoint) | IC50 [4] | IC50 [5] | reduction in CNV area compared to the vehicle group ([1]; 0.5 μg intravitreal) | reduction in CNV area compared to the vehicle group ([1]; 5 μg intravitreal) | reduction in CNV area compared to the vehicle group ([1]; 50 μg intravitreal) | overall reduction in the number of endothelial cells within the CNV area compared to the vehicle group ([1]; 50 μg, 5 μg and 0.5 μg intravitreal, overall) | response in the rat model of laser-induced CNV ([2]; 5 μg intravitreally injected) | incidence of developing leaky CNV 2 weeks after laser photocoagulation ([2]; single intravitreal injection of 0.5 μg rapamycin in CMC) | incidence of developing leaky CNV 2 weeks after laser photocoagulation ([2]; single intravitreal injection of 5 μg rapamycin in CMC) | incidence of developing leaky CNV 2 weeks after laser photocoagulation ([2]; single intravitreal injection of 50 μg rapamycin in CMC) | IC50 [6]
1 | CC1(C)O[C@@H]2C[C@H]3[C@@H]4CCC5=CC(=O)C=C[C@]5(C)[C@@]4(F)[C@@H](O)C[C@]3(C)[C@]2(C(=O)CO)O1 [triamcinolone acetonide] | approximately 50% | ~60% | 10% |  |  |  |  |  |  |  |  |  |  |  |  |  | 
2 | CO[C@H]1C[C@@H]2CC[C@@H](C)[C@@](O)(O2)C(=O)C(=O)N2CCCC[C@H]2C(=O)O[C@H]([C@H](C)C[C@@H]2CC[C@@H](O)[C@H](OC)C2)CC(=O)[C@H](C)/C=C(\C)[C@@H](O)[C@@H](OC)C(=O)[C@H](C)C[C@H](C)/C=C/C=C/C=C/1C [rapamycin, Rapamycin] |  |  |  | significantly reduced | ≤ 24 h | 7 days | ~1 nM | ~2 nM | 15% | 55% | 50% | 50-60% | nearly a complete response | 65% | 5% | 2% | 69 nM
